Experimental data as given in US20240239849A1, “PEPTIDE ENTITIES WITH ANTIMICROBIAL ACTIVITY AGAINST MULTI-DRUG RESISTANT PATHOGENS” (CENTRO DE INVESTIGACIÓN Y DESARROLLO DE MEDICAMENTOS. CIDEM, priority 2020, published 2024).

Key:
[1] = tested on: K. pneumoniae (multi-resistant clinical isolate); experiment: checkerboard test, Meropenem/peptide combinations; type: cell-based, Klebsiella pneumoniae; details: meropenem alone, denominator of FICA
Procedure: (§1) Only strains from clinical isolates of Gram-negative bacteria Klebsiella pneumoniae and Gram-positive Staphylococcus aureus multiresistant to antibiotics were chosen to carry out the combination tests between the peptides. The experiments were carried out according to the methodology of the test described as “checkerboard” or checkerboard [Huang, R.-y., et al., Isobologram Analysis: A Comprehensive Review of Methodology and Current Research. Frontiers in Pharmacology, 2019. 10: p. 1222] This test allows the determination of the fractional inhibitory concentration index (FICI) following Equation 3, which establishes the classification of the effects obtained as follows: synergy (FICI≤0.5), additive (0.5<FICI≤ 1), indifferent (1<FICI≤2) and antagonism (FICI>2).
(§2) Where: MICA: minimum inhibitory concentration of compound A; MICB: minimum inhibitory concentration of compound B; MICAB: minimum concentration of A that combined with B inhibits growth; MICBA: minimum concentration of B that combined with A inhibits growth. The checkerboard experiment was performed in sterile 96-well polypropylene plates (Eppendorf, Germany). Isolated colonies of each bacterium were used to create 1×10^5 CFU bacterial cultures in PBS, referred to as a working culture. In addition, 64 μM stock solutions of the peptides were prepared in PBS. Two-fold dilutions in PBS of each peptide were made in 50 μL final volume. […]

[2] = tested on: S. aureus (multi-resistant clinical isolate); experiment: checkerboard test, Meropenem/peptide combinations; type: cell-based, Staphylococcus aureus; details: meropenem alone, denominator of FICA
Procedure: as §1, §2

MICA (minimum inhibitory concentration of compound A) [1]: 8.0 µg/mL | MICA (minimum inhibitory concentration of compound A) [2]: 8.0 µg/mL
Compound: C[C@@H](O)[C@H]1C(=O)N2C(C(=O)O)=C(S[C@@H]3CN[C@H](C(=O)N(C)C)C3)[C@H](C)[C@H]12 [MER, Meropenem, reference compound]
